From patent US20120070377A1, “COMPOUNDS AND BIOLOGICAL MATERIALS AND USES THEREOF” (priority 2009, published 2012)
Entries after “also recorded” stand apart in the source; their conditions may differ. Where two headings read alike, the source gives them in different places.

Key:
[1] = background statement; cited from earlier work
[2] = Skin photosensitivity in a murine model; type: in vivo; settings: laser on the skin after 1 hour, monitored over 4 days, scale of 1-4
Protocol: FIG. 24: Skin photosensitivity of Foscan compared to compound II. Photosensitisers were administered at t=0 hrs and a laser shone on the skin after 1 hour. The skin reaction was followed over time and the results were plotted according to the scale shown.
Skin photosensitivity is an important issue to be resolved in PDT. […] In a murine model, Foscan was administered at clinical doses (ref 109) and compared to compound 11 and a photo-immunoconjugate of compound 11. Skin photosensitivity was monitored over 4 days by observation according to a scale of 1-4 (FIG. 24).

[3] = Photophysical parameters of the photosensitisers; type: physicochemical; settings: for φΔ, singlet oxygen quantum yield: determined vs. PPa in toluene (0.5), 10% error; for φf, fluorescence quantum yield: determined vs. PPa in toluene (φf = 0.3), 5% error
KB = assay: In vitro phototoxicity (MTS cell titre assay after 670 nm laser light), Example 5; type: cell-based, human; settings: free photosensitisers, 2 hrs incubation, 670 nm laser 0.5 W 10 s, MTS after 48 h
Protocol: (§1) Two different human-derived tumour cell lines: SKOV3 and KB were obtained from the European Collection of Cell Cultures (ECACC) and cultured in Dulbecco's modified Eagle's medium (DMEM) with 10% foetal bovine serum, penicillin and streptomycin antibiotics (1%) and passaged when 70-90% confluent in 75 cm^2 flasks. The cells were maintained at 37° C. in a humidified 5% CO2 atmosphere.
(§2) Cells were trypsinised and seeded at 2×10^3 cells/well for KB and 3×10^3 cells/well for SKOV3 into 96-well plates and incubated over two nights for KB and overnight for SKOV3 at 37° C. and 5% CO2. The cells were then washed once in phenol red free DMEM and appropriately diluted photosensitiser solution or photo-immunoconjugate (in DMEM, 2% DMSO) was added to the appropriate wells under subdued lighting. DMEM or Triton X-100 (1%) were added to control wells. After 2 hrs incubation in the dark at 37° C., 5% CO2, cells were washed three times with PBS and 100 μl of DMEM was added to each well.
(§3) Wells were exposed to light from a High Powered-Devices 670 nm laser used at 0.5 W for 10 s. Controls included wells with photosensitiser added and no exposure to light, or DMEM added and exposure to light as well as Triton X-100 (1%) with or without light exposure. Cells that had no photosensitiser added and no exposure to light were included as overall controls. Cells were incubated in the dark at 37° C., 5% CO2 for 48 h after which time, a cell titre assay was performed according to the manufacturer's instructions. The Promega Cell Titre-96 system was used which involves the conversion by live cells of a tetrazolium compound (MTS) into a formazan dye which is measurable by its absorbance at 490 nm.

SKOV3 = assay: as above; type: cell-based, human; settings: free photosensitisers, 2 hrs incubation, 670 nm laser 0.5 W 10 s, MTS after 48 h
Protocol: as §1, §2, §3

[4] = Biodistribution and blood clearance of 125I-radiolabelled photosensitisers and PICs in SKOV3 tumour mice; type: in vivo, BALB/c nude mice; settings: for blood clearance: iv, radiolabelled, 1-24 hr, SKOV3 tumour mice
Protocol: 0.1 mg of photosensitiser was dissolved in 0.5 ml PBS. Radiolabelled Iodine (Na^125I, ICN chemicals) was added to 0.1 ml of PBS in Iodogen-coated tubes (Pierce chemicals) and allowed to activate. The activated iodine-125 was transferred to the photosensitiser and allowed to react for 5-10 minutes at room temperature. The radiolabelled photosensitiser was separated from free iodine on a mini silica gel column eluting with 100% PBS to remove the iodinating agent followed by a gradual switch from 10% MeOH/PBS to 100% MeOH with the radiolabelled photosenstiser eluting with 10% MeOH/chloroform. The radiolabelled solutions of the photosensitiser was allowed to air-dry and re-suspended in PBS containing 2% DMSO.
(§4) Female BALB/c nude mice (aged 6-8 weeks old) were implanted with 10^7 SKOV3 tumour cells mixed in 0.1 ml of ice-cold matrigel subcutaneously and the tumours were allowed to grow for 3-6 weeks as xenografts. Mice were maintained in IVC cages (individually-vented cages) in a clean room. Samples were injected in a volume of 0.1 ml, intravenously via the lateral tail vein and the mice were maintained in low light with full food and water (irradiated). At various time points (1-24 hr), mice were culled by cardiac puncture under terminal anesthesia and blood and tissues collected. All the tissues were counted for radioactivity by gamma counting and weighed.
The results are shown as a percentage of radioactive material injected per gram of tissue.
(§5) The PS (PPa and PPa-PEG) were chemically coupled to C6 scFv, radiolabelled with iodogen as before, but dialysed against 3×5 L of PBS to remove the free iodine and injected into BALB/c nude mice with SKOV3 tumours as above. Tissues were dissected and counted as above.

SKOV3 cells = assay: Confocal fluorescence microscopy, intracellular localisation with organelle co-stains; type: cell-based, human; settings: for golgi localisation (co-localisation with Bodipy ceramide): FIG. 20; for mitochondrial localisation (co-localisation with Mito-tracker): FIG. 21; for lysosomal localisation (co-localisation with Lyso-tracker): FIG. 22
Protocol: Imaging took place at the FILM Imperial College London on a LEICA SP5 MP inverted confocal microscope, at 37° C. and under a CO2 supplemented atmosphere. The water objective (63×) was used in all the experiments. Images were processed using the Leica software, Image J and Powerpoint.
Note: in any experiment where a photosensitiser is used on cells, the experiment is done under subdued lighting exposing the cells to as little light as possible and incubating wrapped in foil. Following addition of PS to cells, cells were no longer observed on the microscope.
Cells were plated on a Labt-Tek® 8 Chambered #1.0 Borosilicate Coverglass System. With some cell lines, it is often useful to use an attachment factor (200 μl, 30 mins, 37° C.) to coat the wells first.
Photosensitiser solutions in phenol red free DMEM (10% FBS, 1% P/S, 0.5% DMSO) were prepared fresh and pre-warmed to 37° C. for 15 mins. The cells were washed with media (1×200 μl) before adding the solutions (200 μl per chamber). Unless otherwise stated, the cells were grown over 20 hrs in a humidified atmosphere (37° C., 5% CO2). The cells were washed (2×200 μl) with prewarmed phenol red free DMEM
Lysotracker® Green DND-26 was diluted according to manufacturers indications (1 mM stock) and further diluted to twice the working concentration in DMEM (10% FBS, 1% P/S). For use for single colour staining, this was diluted with DMEM (10% FBS, 1% P/S) to a final concentration of 1 μM. When it was used for two colour staining with photosensitisers, a 2 μM solution was twice diluted in photosensitiser solution to give a 1 μM final concentration.
The cells were incubated for 15 mins at 4° C. and a further 30 mins at 37° C. before replacing with fresh medium and imaging.
MitoTracker® Green was diluted according to manufacturers indications (1 mM stock) and further diluted to twice the working concentration in DMEM (10% FBS, 1% P/S). For use for single colour staining, this was diluted with DMEM (10% FBS, 1% P/S) to a final concentration of 1 μM. When it was used for two colour staining with photosensitisers, a 2 μM solution was twice diluted in photosensitiser solution to give a 1 μM final concentration.
The cells were incubated for 15 mins at 4° C. and a further 1 hr at 37° C. before replacing with fresh medium and imaging.
ER-Tracker™ Green (BODIPY® FL glibenclamide) was diluted according to manufacturer's indications (1 mM stock) and further diluted to twice the working concentration in HBSS buffer (+2% HEPES). For use for single colour staining, this was diluted with HBSS (+2% HEPES) to a final concentration of 3 μM. When it was used for two colour staining with photosensitisers, a 6 μM solution was twice diluted in photosensitiser solution to give a 3 μM final concentration.
The cells were incubated for 15 mins at 4° C. and a further 1 hr at 37° C. before replacing with fresh buffer and imaging.
Bodipy® FL C5-ceramide complexed to BSA was diluted according to manufacturer's indications (0.5 mM stock) and further diluted to twice the working concentration in HBSS buffer (+2 HEPES). For use for single colour staining, this was diluted with HBSS (+2% HEPES) to a final concentration of 5 μM. When it was used for two colour staining with photosensitisers, a 10 μM solution was twice diluted in photosensitiser solution to give a 5 μM final concentration. The cells were incubated for 15 mins at 4° C. and a further 30 mins at 37° C. before washing with cold HBSS/HEPES (3×100 μl) and replacing with either HBSS/HEPES or photosensitiser solution and incubating at 37° C. for a further 30 mins before replacing with fresh buffer and imaging.

[5] = Solubility in water or buffer (observations); type: physicochemical
[6] = reference value of PPa in toluene; cited from earlier work
SKOV3 tumour = assay: Tumour uptake and tumour:blood ratio of radiolabelled photosensitisers and PICs; type: in vivo, BALB/c nude mice; settings: % of the injected dose/g of tumour tissue
Protocol: as §4, §5
The tumours were counted for radioactivity and expressed as % of the injected dose/g of tumour tissue (FIG. 10).
The percentage PS in the tumour was divided by the percentage in the blood (gram for gram) to give a targeting or tumour:blood ratio (the higher the better). This plotted in FIG. 11. A high tumour:blood ratio means that there is more in the tumour compared to the blood (and other tissues). This is a function of tumour uptake and blood clearance (see FIGS. 9 and 10).

## Oc1cccc(-c2c3nc(c(-c4cccc(O)c4)c4ccc([nH]4)c(-c4cccc(O)c4)c4nc(c(-c5cccc(O)c5)c5ccc2[nH]5)CC4)C=C3)c1 [Foscan, reference compound]
[1]
  skin photosensitivity (duration): about 2 weeks
[2]
  skin photosensitivity: significant skin sensitivity

## CCC1=C(C)c2cc3[nH]c(c(C)c3CC)c(C#CCCCC(=O)O)c3nc(c4c5[nH]c(cc1n2)c(C)c5C(=O)C4)[C@@H](CCC(=O)OCc1cc(OCCOCCOCCOC)c(OCCOCCOCCOC)c(OCCOCCOCCOC)c1)[C@@H]3C [compound 10, Meso 5-Ethynylhexanoic acid pyropheophorbide a-3,4,5-(triethylene glycolmonomethylether) benzyl ester]
[3]
  τΔ, singlet oxygen lifetime: 30 μs
  φΔ, singlet oxygen quantum yield: 0.56
  φf, fluorescence quantum yield: 0.26

## CCC1=C(C)c2cc3[nH]c(c(C)c3CC)c(-c3cc[n+](CCOCCOCCOC)cc3)c3nc(c4c5[nH]c(cc1n2)c(C)c5C(=O)C4)[C@@H](CCC(=O)O)[C@@H]3C [compound 31C, 3-devinyl-20-(4-triethyleneoxidepyridinium) pyropheophorbide-a chloride]
KB; Homo sapiens, KB
  IC50: 24.7 ± 11.7 µM
SKOV3; Homo sapiens, SK-OV-3
  IC50: 260 ± 31 µM
[3]
  τΔ, singlet oxygen lifetime: 30 μs
  φΔ, singlet oxygen quantum yield: 0.73
  φf, fluorescence quantum yield: 0.15
[4]
  blood clearance: clears more rapidly than the PPa-PEG
SKOV3 cells
  golgi localisation (co-localisation with Bodipy ceramide): very little yellow staining
  mitochondrial localisation (co-localisation with Mito-tracker): very little yellow staining
  lysosomal localisation (co-localisation with Lyso-tracker): significant yellow staining
SKOV3 cells; FIG. 23
  ER localisation (co-localisation with ER-tracker): no yellow staining
SKOV3 cells; no co-stain, FIG. 19
  intracellular localisation (intrinsic fluorescence): more punctuate staining pattern indicative of endosomal (aqueous compartment) localisation

## Manganese(III)-5-ethynyl hexynoic acid pyropheophorbide a-3,4,5-(triethylnene glycol monomethyl ether) benzyl ester [compound 57]
[5]
  solubility in water: water soluble

## Meso pyropheophorbide a-3,4,5-(triethylene glycol monmethylether) 3-devinyl-3-carboxybenzyl-3,4,5-(triethylene glycol monomethylether) pyropheophorbide a [compound 38]
[5]
  solubility in water: highly aqueous soluble

## N-Bis-[3-(trimethylamino)propyl]-meso 5-Bromopyropheophorbide a amide diiodide [compound 19]
[5]
  solubility in water: readily soluble in water and methanol

## Pyropheophorbide-a [PPa, reference compound]
KB
  IC50: 1.2 ± 0.4 µM
SKOV3
  IC50: 14.5 ± 3.2 µM
[3]
  τΔ, singlet oxygen lifetime: 30 μs
[6]
  φf, fluorescence quantum yield: 0.3
  φΔ, singlet oxygen quantum yield: 0.5
[4]; % of radioactive material injected per gram of tissue, over 24 hour
  level in tissues (biodistribution): high levels in all major tissues
[4]
  blood clearance: resides in the blood for a long time; also recorded: very slow
SKOV3 tumour
  tumour uptake: high
SKOV3 cells
  golgi localisation (co-localisation with Bodipy ceramide): significant yellow staining
  mitochondrial localisation (co-localisation with Mito-tracker): significant yellow staining
  lysosomal localisation (co-localisation with Lyso-tracker): insignificant yellow staining
